Experimental data published in ChEMBL document CHEMBL4680261, “DDX3X inhibitors, an effective way to overcome HIV-1 resistance targeting host proteins” (Eur J Med Chem, 2020).

How the values were obtained:
[1] = target: ATP-dependent RNA helicase DDX3X (Homo sapiens, UniProt O00571); assay: Inhibition of human DDX3X using dsRNA as substrate measured every 30 sec for 40 mins by FRET assay
[2] = test system: Human immunodeficiency virus 1; assay: Antiviral activity against HIV-1 NL4-3 infected in human TZM-bl cells infected with supernatants from virus-infected human H9 cells treated with compound for 72 hrs assessed as reduction in luciferase expression measured after 48 hrs by luciferase reporter gene assay based BiCycle assay; type: functional, organism-based; conditions: Human immunodeficiency virus 1, NL4-3
[3] = test system: Human immunodeficiency virus 1; assay: Antiviral activity against HIV-1 11808 harboring protease V32I/I54V/I84V/L90M mutant infected in human TZM-bl cells infected with supernatants from virus-infected human H9 cells treated with compound for 72 hrs assessed as reduction in luciferase expression measured after 48 hrs by luciferase reporter gene assay based BiCycle assay; type: functional, organism-based; conditions: Human immunodeficiency virus 1, 11808
[4] = test system: Human immunodeficiency virus 1; assay: Antiviral activity against HIV-1 7400 harboring nucleos(t)ide reverse transcriptase M41L/E44D/D67N/T69D/M184VL210W/T215Y mutant infected in human TZM-bl cells infected with supernatants from virus-infected human H9 cells treated with compound for 72 hrs assessed as reduction in luciferase expression measured after 48 hrs by luciferase reporter gene assay based BiCycle assay; type: functional, organism-based; conditions: Human immunodeficiency virus 1, 7400
[5] = test system: Human immunodeficiency virus 1; assay: Antiviral activity against HIV-1 11847 harboring integrase G140S/Q148H mutant infected in human TZM-bl cells infected with supernatants from virus-infected human H9 cells treated with compound for 72 hrs assessed as reduction in luciferase expression measured after 48 hrs by luciferase reporter gene assay based BiCycle assay; type: functional, organism-based; conditions: Human immunodeficiency virus 1, 11847
[6] = test system: Human immunodeficiency virus 1; assay: Antiviral activity against HIV-1 12231 harboring non-nucleoside reverse transcriptase K103N/V179F/Y181C mutant infected in human TZM-bl cells infected with supernatants from virus-infected human H9 cells treated with compound for 72 hrs assessed as reduction in luciferase expression measured after 48 hrs by luciferase reporter gene assay based BiCycle assay; type: functional, organism-based; conditions: Human immunodeficiency virus 1, 12231
[7] = Selectivity index, ratio of IC50 for antiviral activity against HIV-1 11808 harboring protease V32I/I54V/I84V/L90M mutant infected in human TZM-bl cells infected with supernatants from virus-infected human H9 cells to IC50 for antiviral activity against HIV-1 […] infected in human TZM-bl cells infected with supernatants from virus-infected human H9 cells; type: functional, Human immunodeficiency virus 1
[8] = Selectivity index, ratio of IC50 for antiviral activity against HIV-1 7400 harboring nucleos(t)ide reverse transcriptase M41L/E44D/D67N/T69D/M184VL210W/T215Y mutant infected in human TZM-bl cells infected with supernatants from virus-infected human H9 cells to IC50 for antiviral activity against HIV-1 […] infected in human TZM-bl cells infected with supernatants from virus-infected human H9 cells; type: functional, Human immunodeficiency virus 1
[9] = Selectivity index, ratio of IC50 for antiviral activity against HIV-1 11847 harboring integrase G140S/Q148H mutant infected in human TZM-bl cells infected with supernatants from virus-infected human H9 cells to IC50 for antiviral activity against HIV-1 […] infected in human TZM-bl cells infected with supernatants from virus-infected human H9 cells; type: functional, Human immunodeficiency virus 1
[10] = Selectivity index, ratio of IC50 for antiviral activity against HIV-1 12231 harboring non-nucleoside reverse transcriptase K103N/V179F/Y181C mutant infected in human TZM-bl cells infected with supernatants from virus-infected human H9 cells to IC50 for antiviral activity against HIV-1 […] infected in human TZM-bl cells infected with supernatants from virus-infected human H9 cells; type: functional, Human immunodeficiency virus 1
[11] = Apparent permeability of compound incubated for 5 hrs by PAMPA assay; type: ADME
[12] = Metabolic stability in human liver microsomes assessed as parent compound remaining measured after 60 mins by LC-UV-MS analysis; type: ADME, Microsome; conditions: read-out: Stabilty
[13] = Half life in BALB/c mouse at 8 mg/kg, iv measured upto 24 hrs by HPLC-MS analysis; type: ADME, organism-based; conditions: in vivo
[14] = Cmax in BALB/c mouse at 8 mg/kg, iv measured upto 24 hrs by HPLC-MS analysis; type: ADME, organism-based; set-up: route intravenous, dose 8 mg/kg, time <=24; conditions: in vivo
[15] = AUC (0 to t) in BALB/c mouse at 8 mg/kg, iv measured upto 24 hrs by HPLC-MS analysis; type: ADME, organism-based; set-up: route intravenous, dose 8 mg/kg, time <=24; conditions: in vivo
[16] = Observed AUC (0 to infinity) in BALB/c mouse at 8 mg/kg, iv measured upto 24 hrs by HPLC-MS analysis; type: ADME, organism-based; set-up: route intravenous, dose 8 mg/kg, time <=24; conditions: in vivo
[17] = Observed volume of distribution at steady state in BALB/c mouse at 8 mg/kg, iv measured upto 24 hrs by HPLC-MS analysis; type: ADME, organism-based; conditions: in vivo, read-out: Vdss
[18] = Observed clearance in BALB/c mouse at 8 mg/kg, iv measured upto 24 hrs by HPLC-MS analysis; type: ADME, organism-based; conditions: in vivo
[19] = Half life in BALB/c mouse at 16 mg/kg, iv measured upto 24 hrs by HPLC-MS analysis; type: ADME, organism-based; conditions: in vivo
[20] = Cmax in BALB/c mouse at 16 mg/kg, iv measured upto 24 hrs by HPLC-MS analysis; type: ADME, organism-based; set-up: route intravenous, dose 16 mg/kg, time <=24; conditions: in vivo
[21] = AUC (0 to t) in BALB/c mouse at 16 mg/kg, iv measured upto 24 hrs by HPLC-MS analysis; type: ADME, organism-based; set-up: route intravenous, dose 16 mg/kg, time <=24; conditions: in vivo
[22] = Observed AUC (0 to infinity) in BALB/c mouse at 16 mg/kg, iv measured upto 24 hrs by HPLC-MS analysis; type: ADME, organism-based; set-up: route intravenous, dose 16 mg/kg, time <=24; conditions: in vivo
[23] = Observed volume of distribution at steady state in BALB/c mouse at 16 mg/kg, iv measured upto 24 hrs by HPLC-MS analysis; type: ADME, organism-based; conditions: in vivo, read-out: Vdss
[24] = Observed clearance in BALB/c mouse at 16 mg/kg, iv measured upto 24 hrs by HPLC-MS analysis; type: ADME, organism-based; conditions: in vivo
[25] = Half life in BALB/c mouse at 32 mg/kg, iv measured upto 24 hrs by HPLC-MS analysis; type: ADME, organism-based; conditions: in vivo
[26] = Cmax in BALB/c mouse at 32 mg/kg, iv measured upto 24 hrs by HPLC-MS analysis; type: ADME, organism-based; set-up: route intravenous, dose 32 mg/kg, time <=24; conditions: in vivo
[27] = AUC (0 to t) in BALB/c mouse at 32 mg/kg, iv measured upto 24 hrs by HPLC-MS analysis; type: ADME, organism-based; set-up: route intravenous, dose 32 mg/kg, time <=24; conditions: in vivo
[28] = Observed AUC (0 to infinity) in BALB/c mouse at 32 mg/kg, iv measured upto 24 hrs by HPLC-MS analysis; type: ADME, organism-based; set-up: route intravenous, dose 32 mg/kg, time <=24; conditions: in vivo
[29] = Tmax in BALB/c mouse at 16 to 32 mg/kg, iv measured upto 24 hrs; type: ADME, organism-based; conditions: in vivo, dose 16-32 mg/kg
[30] = Drug excretion in BALB/c mouse at 16 to 32 mg/kg, iv measured upto 24 hrs; type: ADME, organism-based; conditions: in vivo, dose 16-32 mg/kg, read-out: Drug excretion
[31] = Drug uptake in BALB/c mouse brain at 16 to 32 mg/kg, iv measured upto 24 hrs; type: ADME, organism-based; conditions: in vivo, dose 16-32 mg/kg
[32] = Drug uptake in BALB/c mouse spleen at 16 to 32 mg/kg, iv measured upto 24 hrs; type: ADME, organism-based; conditions: in vivo, dose 16-32 mg/kg
[33] = Plasma concentration in BALB/c mouse at 16 to 32 mg/kg, iv measured after 240 mins; type: ADME, organism-based; conditions: dose 16-32 mg/kg
[34] = Plasma concentration in BALB/c mouse at 16 to 32 mg/kg, iv measured after 24 hrs; type: ADME, organism-based; conditions: dose 16-32 mg/kg
[35] = Toxicity in BALB/c mouse assessed as reduction in body weight at 32 mg/kg, iv administered three times a week for 3 weeks; type: organism-based; conditions: in vivo, 504 h
[36] = Toxicity in BALB/c mouse assessed as organism death at 32 mg/kg, iv administered three times a week for 3 weeks; type: organism-based; conditions: in vivo, 504 h
[37] = Toxicity in BALB/c mouse assessed as effect on liver at 32 mg/kg, iv administered three times a week for 3 weeks by hematoxylin and eosin staining based microscopic imaging analysis; type: organism-based; conditions: in vivo, 504 h
[38] = Toxicity in BALB/c mouse assessed as effect on kidney at 32 mg/kg, iv administered three times a week for 3 weeks by hematoxylin and eosin staining based microscopic imaging analysis; type: organism-based; conditions: in vivo, 504 h
[39] = Toxicity in BALB/c mouse assessed as effect on brain at 32 mg/kg, iv administered three times a week for 3 weeks by hematoxylin and eosin staining based microscopic imaging analysis; type: organism-based; conditions: in vivo, 504 h

ATP-dependent RNA helicase DDX3X, sequence (O00571 whole entry): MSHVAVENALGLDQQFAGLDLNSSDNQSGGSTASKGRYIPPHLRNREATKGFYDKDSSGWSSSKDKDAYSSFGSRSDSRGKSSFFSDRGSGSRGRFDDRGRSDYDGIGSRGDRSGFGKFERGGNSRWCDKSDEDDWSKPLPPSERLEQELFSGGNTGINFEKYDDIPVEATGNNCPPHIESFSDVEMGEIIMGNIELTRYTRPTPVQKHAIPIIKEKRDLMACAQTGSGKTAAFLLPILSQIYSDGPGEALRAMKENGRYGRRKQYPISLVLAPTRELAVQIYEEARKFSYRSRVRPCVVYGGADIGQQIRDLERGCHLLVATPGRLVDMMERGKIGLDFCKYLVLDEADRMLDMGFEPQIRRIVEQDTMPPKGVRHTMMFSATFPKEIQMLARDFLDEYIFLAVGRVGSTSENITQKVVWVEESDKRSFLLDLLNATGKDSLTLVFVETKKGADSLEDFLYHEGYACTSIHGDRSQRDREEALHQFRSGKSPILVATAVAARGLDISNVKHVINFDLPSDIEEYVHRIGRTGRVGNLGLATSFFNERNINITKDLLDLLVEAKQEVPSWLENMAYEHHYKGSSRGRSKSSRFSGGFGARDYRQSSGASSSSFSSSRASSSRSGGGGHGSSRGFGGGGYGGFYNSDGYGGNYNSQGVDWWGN

CCCCc1cn(-c2ccc(NC(=O)Nc3cc(CCC(C)=O)ccc3C)cc2)nn1
IC50 ([1]; read-out: IC50): 2490 nM

CC(C)CCc1cn(-c2ccc(NC(=O)Nc3cccc4cnccc34)cc2)nn1
IC50 [2]: 2100 nM | IC50 ([1]; read-out: IC50): 120 nM | IC50 [3]: 2300 nM | IC50 [4]: 1800 nM | IC50 [5]: 1500 nM | IC50 [6]: 1800 nM | Ratio IC50 [7]: 1.1 | Ratio IC50 [8]: 0.8 | Ratio IC50 [9]: 0.7 | Ratio IC50 [10]: 0.8 | Papp at 5 h [11]: 0.18 ×10⁻⁶ cm/s | remaining at 1 h [12]: 89.7% | half-life [13]: 8.97 h | Cmax [14]: 5500 ng/mL | AUC(0-t) at 24 h [15]: 25600 ng·h/mL | AUC(0-inf) [16]: 30700 ng·h/mL | Vd [17]: 3.4 L/kg | clearance [18]: 4.3 mL/min/kg | half-life [19]: 7.76 h | Cmax [20]: 15800 ng/mL | AUC(0-t) at 24 h [21]: 23700 ng·h/mL | AUC(0-inf) [22]: 25700 ng·h/mL | Vd [23]: 7 L/kg | clearance [24]: 8 mL/min/kg | t1/2 [25]: 4.682 h | Cmax [26]: 44400 ng/mL | AUC(0-t) at 24 h [27]: 98500 ng·h/mL | AUC [28]: 6114.4 µg·min/mL | Tmax [29]: 1 h | dose excreted at 24 h [30]: 100% | Drug uptake [31]: Not Active | Drug uptake [32]: Active | concentration at 4 h [33]: 10 µM | concentration at 24 h [34]: 2 µM | Activity [35]: Non-Toxic | Activity [36]: Non-Toxic | Activity [37]: Non-Toxic | Activity [38]: Non-Toxic | Activity [39]: Non-Toxic

Cc1ccccc1NC(=O)Nc1ccc(-n2cc(CCO)nn2)cc1
IC50 ([1]; read-out: IC50): 13000 nM

COCCc1cn(-c2ccc(NC(=O)Nc3ccccc3C)cc2)nn1
remaining at 1 h [12]: 94.2%

O=C(Nc1ccc(-n2cc(CCO[C@H]3O[C@@H](CO)[C@H](O)[C@@H]3O)nn2)cc1)Nc1ccccc1C(F)(F)F
IC50 [1]: Not Active

CC(C)CC(=O)OCCc1cn(-c2ccc(NC(=O)Nc3ccccc3C(F)(F)F)cc2)nn1
IC50 [2]: > 50000 nM | Papp at 5 h [11]: 4.24 ×10⁻⁶ cm/s | remaining at 1 h [12]: 49.3%

O=C(Nc1ccc(-n2cc(CCO)nn2)cc1)Nc1ccccc1C(F)(F)F
IC50 [2]: > 50000 nM | IC50 ([1]; read-out: IC50): 11200 nM

CCCCc1cn(-c2ccc(NC(=O)Nc3cc(OP(=O)(OCC)OCC)ccc3C)cc2)nn1
IC50 [2]: 5500 nM | IC50 ([1]; read-out: IC50): 940 nM | Papp at 5 h [11]: 0.68 ×10⁻⁶ cm/s | remaining at 1 h [12]: 85.2%

CCOCc1cn(-c2ccc(NC(=O)Nc3cc(C(C)C)ccc3C)cc2)nn1
IC50 [2]: 3800 nM | IC50 ([1]; read-out: IC50): 1510 nM

CCCCc1cn(-c2ccc(NC(=O)Nc3cc(OC4CCOC4)ccc3C)cc2)nn1 (stereo not given)
IC50 [2]: 2600 nM | IC50 ([1]; read-out: IC50): 100 nM

CCOC(=O)CCc1cn(-c2ccc(NC(=O)Nc3ccccc3C(F)(F)F)cc2)nn1
IC50 [2]: > 50000 nM | IC50 ([1]; read-out: IC50): 2020 nM | Papp at 5 h [11]: 1.56 ×10⁻⁶ cm/s | remaining at 1 h [12]: 16.9%
